Where two headings read alike, the source gives them in different places.
How the values were obtained:
[1] = DPPH radical scavenging assay; assay type: biochemical; set-up: DPPH517nm % SA ± SD: dose or concentration left out as unconfirmed; details: for DPPH517nm % SA ± SD: mean of three measurements
Excerpt: (§1) Three in vitro antioxidant assays (DPPH, FRAP, and ABTS) were utilized to evaluate the antioxidant property of the synthesized compounds. The DPPH (α, α-diphenyl-β-picrylhydrazyl) assay is the well-known approach to determine antioxidant activity using a stable free radical DPPH, measure the absorbance change, and calculate the absorbance change in the percentage of scavenging activity. […] For example, the ferric-tripyridyltriazine (Fe^3+-TPTZ, colorless) complex is reduced to ferrous tripyridyltriazine (Fe^2+-TPTZ) at low pH and introduces a blue color with maximum absorption at 593 nm. The change in absorbance is related to antioxidant activity. However, a significant limitation of these in vitro tests is the non-physiological measurement conditions (no enzymatic condition and no transition metal ion chelating activity); therefore, the results obtained may not reflect the antioxidant activity of the source material under the biological conditions that exist in humans and animals. The ABTS assay involves a more drastic radical that is chemically produced. The use of ABTS for antioxidant activity determination of hydrophilic and lipophilic pure compounds has attracted interest due to its solubility in organic and aqueous media and stability in a wide pH range [31].
The DPPH method was followed and modified from a previous study. Trolox was used as a reference. The DPPH stock solution at a concentration of 0.625 mM was prepared in 50% ethanol and kept at 4 °C in the dark. On the day of the experiment, 0.208 mM fresh DPPH working solution was freshly prepared by further diluting with 50% ethanol. […] Each reaction was carried out in a 96-well plate, and 100 μL of test preparation and DPPH solution were added. The 96-well plate was then shaken well for 10 min and kept in the dark at room temperature for 20 min, and the absorbance was recorded at 515–517 nm. According to the method described, delocalization also results in a deep violet color and is quantified as a percentage of scavenging activity. % scavenging activity (SA) = 100 × (Asample − Ablank)/(Acontrol − Ablank)(1) where Acontrol and Asample are the absorbances of the test DPPH without and with a sample, respectively. Ablank is the absorbance of the solvent used. The EC50 values were calculated from the relationship curve of %SA versus sample concentration. The experiment was carried out at least in triplicate.

[2] = FRAP (ferric reducing antioxidant power) assay; assay type: biochemical; details: Trolox equivalent
Excerpt: as §1
The FRAP assay is a method for assessing antioxidant power. Briefly, the FRAP reagent was prepared from acetate buffer pH 3.6, 10 mM TPTZ solution in 40 mM HCl and 20 mM FeCl3.6 H2O in relative proportions of 10:1:1, v/v, respectively. The FRAP reagent was freshly prepared daily. A solution of 5 μL of the sample (3–300 μM, approx.) was mixed with 180 μL of the FRAP reagent in a 96-well plate. The mixture was shaken in the dark for 10 min and incubated at 37 °C for 20 min, and the absorbance was determined at 593 nm. The solution without the sample was used as a blank. All determinations were made in triplicate. Trolox was used as a standard antioxidant and plot the calibration curve between absorbance and concentration. Quercetin was applied as the reference compound. The FRAP values were calculated by comparing the absorbance change in the test sample and represented in μM of Trolox equivalent per μM of sample.

[3] = ABTS radical cation scavenging assay; assay type: biochemical
Excerpt: as §1
The ABTS assay was prepared by reaction of 5 mL of a 7 mM aqueous ABTS (2,2′-azino-bis (3-ethylbenzthiazoline-6-sulphonic acid) solution and 2.45 mM potassium persulfate solution (K2S2O8). After preparation and storage in the dark for 16 h, the radical cation solution was further diluted in ethanol to absorb about 0.7 at 734 nm. Trolox and test sample solutions were prepared in stock solution with DMSO and diluted with ethanol. A solution of 100 μL of the sample was mixed with 100 μL of the ABTS reagent in a 96-well plate. The mixture was shaken in a dark place for 10 min and incubated at 37 °C for 20 min, and the absorbance was determined at 734 nm. Absorbance determinations were recorded immediately and not more than 1 h after adding the reagent. The solution without the sample was used as a blank. All the determinations were made in triplicate. The sample’s scavenging percentage was calculated from this equation: scavenging percentage = (Absorbance control − Absorbance sample) × 100/Absorbance control. EC50 values were calculated from the relationship curve of %scavenging versus sample concentration.

[4] = MTT cytotoxicity assay, HEK293 cells; assay type: cell-based; details: human, HEK293 cells, 100 μM; for viability at 24 h, 100 µM: read-out: % Viability ± SD (at 100 μM) HEK293 24 h; for viability at 48 h, 100 µM: read-out: % Viability ± SD (at 100 μM) HEK293 48 h
Protocol: (§2) HEK293, HACAT, and HeLa cells were grown in modified Eagles’ minimum essential medium (EMEM, Gibco) with 10% fetal bovine serum (FBS, Gibco), 1% of 100 U/mL streptomycin and 100 U/mL penicillin (Gibco). Cells were seeded in culture flasks and maintained in an incubator at 37 °C in a humidified atmosphere with 5% CO2. After reaching 80–90% of confluence, cells were detached by incubation with 0.25% trypsin-0.2% EDTA (Gibco) for 5 min and plated for experiments.
(§3) This study examined cell cultures of HEK293, HACAT, and HeLa cells. The cytotoxicity of the test samples was carried out by the MTT (3-(4,5-dimethylthiazol-2-yl)-2,5-diphenyltetrazolium bromide) assay. The cells were seeded in 96-well microliter plates (2.0 × 10^4 cells/well). Stock solutions of the test compounds were prepared in DMSO. After 24 h, cells were treated with different concentrations of samples and diluted with media to obtain the final desired concentration. The treated cells were then incubated at 37 °C and 5% CO2 for 24 and 48 h. After incubation, the medium was replaced with 0.05% w/v of MTT solution in PBS and further incubated for 3 h. The solution was then discarded and DMSO was added to dissolve the formed formazan crystals. Each well’s absorbance (A) was measured at 570 nm using a microplate reader (FLUOstar Omega^TM, BMG Labtech, Ortenberg, Germany). All experiments were carried out in triplicate and repeated for at least three experiments.

[5] = MTT cytotoxicity assay, HACAT cells; assay type: cell-based; details: human; for viability at 24 h, 100 µM: read-out: % Viability ± SD (at 100 μM) HACAT 24 h; for viability at 48 h, 100 µM: read-out: % Viability ± SD (at 100 μM) HACAT 48 h
Protocol: as §2, §3

HeLa cell = experiment: MTT anticancer activity assay, HeLa cells; assay type: cell-based
Protocol: as §2, §3

HeLa cells = experiment: Cell cycle analysis by flow cytometry; assay type: cell-based; details: 24 h, 2f, 2j, quercetin at IC50, paclitaxel 5 μM
Protocol: The paclitaxel (5 μM) was performed as the positive control.
The treatment of HeLa cells and compounds was the same as in the apoptosis protocol. The cells were harvested for 200 μL and centrifuged at 600× g for 5 min and washed with PBS. The mixing cells were slowly added 200 μL of ice-cold 70% ethanol and incubated for at least 3 h at −20 °C. Cells were centrifuged and washed with PBS. Finally, cells were stained with 200 μL of Muse® cell cycle reagent and incubated at room temperature for 30 min in the dark. The cell was analyzed by flow cytometry (Guava Muse Cell Analyzer, Luminex, Austin, TX, USA).

[6] = Homo sapiens, 24 h, read-out: % Viability ± SD (at 100 μM) HeLa 24 h
[7] = Homo sapiens, 48 h, read-out: % Viability ± SD (at 100 μM) HeLa 48 h

| EC50 ([1]; read-out: DPPH517nm EC50 ± SD) [µM] | EC50 ([3]; read-out: ABTS734nm EC50 ± SD) [µM] | IC50 (HeLa cell; Homo sapiens, HeLa, 24 h) [µM] | melting point [°C] | IC50 (HeLa cell; 24 h) [µM] | Structure (SMILES) | DPPH517nm % SA ± SD [1] [%] | FRAP593nm Value ± SD (TE) [2] | ABTS734nm % Scavenging at 500 µM [3] [%] | viability at 24 h, 100 µM [4] [%] | viability at 48 h, 100 µM [4] [%] | viability at 24 h, 100 µM [5] [%] | viability at 48 h, 100 µM [5] [%] | Anticancer activity on cervical cancer cells (HeLa cell; HeLa, 24 h) | viability at 100 µM (HeLa cell; [6]) [%] | viability at 100 µM (HeLa cell; [7]) [%] | Cell cycle phase arrest (HeLa cells) | Cell population in G0/G1 phase (HeLa cells) [%] | Cell population in G2/M phase (HeLa cells) [%] | Cell population in S phase (HeLa cells) [%] |
| --- | --- | --- | --- | --- | --- | --- | --- | --- | --- | --- | --- | --- | --- | --- | --- | --- | --- | --- | --- |
| > 750 | 158 ± 10.9 | 108 ± 4.04 | 196 to 197 | – | O=C(c1ccccc1)c1c(-c2ccccc2)oc2cc(O)cc(O)c2c1=O [2e, 3-Benzoyl-5,7-dihydroxy-2-phenyl-4H-chromen-4-one] | 46.30 ± 3.61 | 0.02 ± 0.002 µM Trolox/1 µM of Synthesized Compounds | 80.67 ± 0.30 | 99.7 ± 2.41 | 93.9 ± 5.34 | 79.7 ± 3.26 | 69.1 ± 3.07 | contained anticancer activity | 76 ± 1.52 | 26.5 ± 1.13 | – | – | – | – |
| – | – | 172.7 ± 1.66 | 253 to 254 | – | COc1cccc(C(=O)c2c(-c3cccc(OC)c3)oc3cc(O)ccc3c2=O)c1 [2g, 7-Hydroxy-3-(3-methoxybenzoyl)-2-(3-methoxyphenyl)-4H-chromen-4-one] | 18.32 ± 0.40 | 0.02 ± 0.008 µM Trolox/1 µM of Synthesized Compounds | 11.52 ± 3.56 | 79.1 ± 0.9 | 76.7 ± 1.16 | 81.5 ± 5.17 | 78.4 ± 5.44 | contained anticancer activity | – | 46.3 ± 1.14 | – | – | – | – |
| – | – | 95.7 | 201 to 203.5 | 95.7 ± 1.16 | O=C(c1ccccc1)c1c(-c2ccccc2)oc2ccc(O)cc2c1=O [2b, 3-Benzoyl-6-hydroxy-2-phenyl-4H-chromen-4-one] | 5.32 ± 2.43 | 0.02 ± 0.003 µM Trolox/1 µM of Synthesized Compounds | 35.99 ± 1.32 | 105 ± 2.7 | 72.4 ± 8.55 | 75.7 ± 3.38 | 74.9 ± 1.55 | contained anticancer activity | 40.9 ± 0.41 | 24.8 ± 1.05 | – | – | – | – |
| – | – | – | 122 to 124 | – | CC(=O)c1ccc(O)cc1OC(=O)c1ccco1 [compound 4, 2-Acetyl-5-hydroxyphenyl furan-2-carboxylate] | 0.99 ± 0.71 | 0.00 ± 0.001 µM Trolox/1 µM of Synthesized Compounds | 14.51 ± 1.94 | 97.99 ± 0.4 | 108 ± 2.84 | 85.7 ± 5.6 | 72.2 ± 1.81 | – | 86.1 ± 3.24 | 91.07 ± 0.65 | – | – | – | – |
| – | – | – | 300 to 301 | – | COc1ccc(C(=O)c2c(-c3ccc(OC)cc3)oc3cc(O)ccc3c2=O)cc1 [2h, 7-hydroxy-3-(4-methoxybenzoyl)-2-(4-methoxyphenyl)-4H-chromen-4-one] | 12.57 ± 6.18 | 0.06 ± 0.024 µM Trolox/1 µM of Synthesized Compounds | 6.55 ± 4.19 | 77.2 ± 1.93 | 73.1 ± 0.79 | 75.2 ± 7.39 | 71.8 ± 3.27 | – | 84.9 ± 2.55 | 64.2 ± 0.76 | – | – | – | – |

The remaining lines, values behind:

| Structure (SMILES) | EC50 ([1]; read-out: DPPH517nm EC50 ± SD) [µM] | EC50 ([3]; read-out: ABTS734nm EC50 ± SD) [µM] | IC50 (HeLa cell; Homo sapiens, HeLa, 24 h) [µM] | melting point [°C] | IC50 (HeLa cell; 24 h) [µM] | DPPH517nm % SA ± SD [1] [%] | FRAP593nm Value ± SD (TE) [2] | ABTS734nm % Scavenging at 500 µM [3] [%] | viability at 24 h, 100 µM [4] [%] | viability at 48 h, 100 µM [4] [%] | viability at 24 h, 100 µM [5] [%] | viability at 48 h, 100 µM [5] [%] | Anticancer activity on cervical cancer cells (HeLa cell; HeLa, 24 h) | viability at 100 µM (HeLa cell; [6]) [%] | viability at 100 µM (HeLa cell; [7]) [%] | Cell cycle phase arrest (HeLa cells) | Cell population in G0/G1 phase (HeLa cells) [%] | Cell population in G2/M phase (HeLa cells) [%] | Cell population in S phase (HeLa cells) [%] |
| --- | --- | --- | --- | --- | --- | --- | --- | --- | --- | --- | --- | --- | --- | --- | --- | --- | --- | --- | --- |
| COc1ccc2oc(-c3ccccc3)c(C(=O)c3ccccc3)c(=O)c2c1 [2c, 3-Benzoyl-6-methoxy-2-phenyl-4H-chromen-4-one] | – | – | – | 194 to 196 | – | 5.88 ± 2.65 | 0.07 ± 0.028 µM Trolox/1 µM of Synthesized Compounds | 13.16 ± 0.78 | 72.5 ± 6.46 | 74 ± 1.32 | 62.3 ± 3.04 | 60.4 ± 0.73 | – | 60.67 ± 0.57 | 82.12 ± 0.11 | – | – | – | – |
| O=C(c1ccccc1)c1c(-c2ccccc2)oc2cccc(O)c2c1=O [2a, 3-Benzoyl-5-hydroxy-2-phenyl-4H-chromen-4-one] | – | – | – | 156 to 158 | – | 2.23 ± 1.99 | 0.02 ± 0.004 µM Trolox/1 µM of Synthesized Compounds | 10.93 ± 1.44 | 111 ± 6.37 | 103 ± 6.05 | 63.8 ± 3.36 | 88.5 ± 6.86 | – | 91.9 ± 2.06 | 58.8 ± 2.02 | – | – | – | – |
| CC(=O)O[C@H]1C(=O)[C@@]2(C)[C@H]([C@H](OC(=O)c3ccccc3)[C@]3(O)C[C@H](OC(=O)[C@H](O)[C@@H](NC(=O)c4ccccc4)c4ccccc4)C(C)=C1C3(C)C)[C@]1(OC(C)=O)CO[C@@H]1C[C@@H]2O [Paclitaxel, paclitaxel, reference compound] | – | – | – | – | – | – | – | – | – | – | – | – | – | – | – | potent phase arrest of G2/M | 5.89 ± 0.18 | 89.12 ± 1.14 | 4.99 ± 0.96 |
